Test results published in patent publication US7811352B2, “Fertilizer compositions and methods of using” (priority 2005, dated 2010).

How the values were obtained:
Type in all cases: in vivo
[1] = system: Bermuda grass; test: Phytotoxicity (% burn), Bermuda grass golf course fairways (Example 13)
Procedure: In this Example, the effect of a fertilizer comprising lysine on turfgrass growth was examined. The effects of lysine (HCl) and LIQUID LYSINE on a common type of golf course fairway quality turfgrass (Bermuda green) were compared with those of CoRoN® brand fertilizer.
Six fertilizer treatments comprising two concentrations of each fertilizer composition (Coron® (N—P—K, 14-2-14), LIQUID LYSINE (N—P—K, 10-2-1), and lysine (HCl) (N—P—K, 15-2-1)) were prepared and applied to 3 replications of Bermuda grass for use on golf course fairways. The lysine (HCl) was applied as a granular using a Scotts 2 foot drop spreader on a setting of 4.5. The solutions of LIQUID LYSINE and Coran were applied using a Birchmeier backpack sprayer with a 5 foot spray pattern. Each fertilizer treatment was applied in concentrations 3.0 lb N/1000 ft^2 and 6.0 lb N/1000 ft^2. Plot size was 5 ft×60 ft set up as a randomized complete block. Irrigation was applied following application, Plots were rated for turfgrass quality and color (scale of 1-10 where 10=dark green turf 1=dead/brown turf and 6=minimally acceptable turf) and phytotoxicity (% burn) throughout the study period and compared with two untreated plots. […] All data was subject to statistical analysis and significant means were determined.

[2] = system: lawn height, Kentucky bluegrass; test: Color rating of lawn height Kentucky bluegrass after fertilization (Example 5); details: about two weeks after application
Procedure: (§1) In this Example, the efficacy of fertilizers on lawn height, Kentucky bluegrass was examined. Fertilizer compositions according to several embodiments of the present disclosure were prepared and compared to the commercial fertilizer products, urea 46-0-0 (granular) fertilizer, Lebanon fertilizer 21-0-12 (granular, commercially available from Lebanon Seaboard Corporation, Lebanon, Pa.) and Milorganite 6-2-0 (granular, commercially available from Milorganite, Milwaukee, Wis.). The fertilizer compositions were applied to the turf grass prior to winter dormancy at a rate equivalent to supplying about 1.0 pounds of nitrogen (N) per 1000 square feet. Each of the fertilizer compositions were applied at substantially equal rates of lbs of nitrogen (N) per 1000 square feet. Table 2 illustrates the response of lawn height, Kentucky bluegrass to fertilization using various exemplary fertilizers of the present invention, taken about two weeks after application of the fertilizer. The letters in the Color and Injury columns correspond to Duncan's Multiple Range Test.

[3] = system: lawn height, Kentucky bluegrass; test: Injury rating of lawn height Kentucky bluegrass after fertilization (Example 5); details: about two weeks after application
Procedure: as §1

[4] = system: Bermuda grass; test: Phytotoxicity rating, Bermuda grass fairway (Example 10); details: scale 0-5, 5=worst
From the text: In this Example, the effect of a fertilizer comprising lysine on warm season turfgrass growth was examined. The effects of lysine (HCl) and LIQUID LYSINE on a common type of golf course fairway quality turfgrass (Bermuda grass) were compared with those of urea and Milorganite.
Fifteen fertilizer treatments comprising three concentrations of each fertilizer composition (Milorganite (N—P—K, 6-2-0), urea (N—P—K, 46-0-0), LIQUID LYSINE (N—P—K, 10-2-1), and both granular and aqueous lysine (HCl) (N—P—K, 15-2-1)) were prepared and applied to 4 replications of Bermuda grass. The aqueous lysine (HCl) was dissolved in water prior to application. Each fertilizer treatment was applied in concentrations of 0.5 lb N/1000 ft^2/month, 1.0 lb N/1000 ft^2/month and 3.0 lb N/1000 ft^2/month. The urea, LIQUID LYSINE and aqueous lysine (HCl) were applied as foliar liquids, while Milorganite and granular lysine (HCl) were applied as granular fertilizers Plot size was 1 m×2 m set up as a randomized complete block. Plots were mowed at 0.5 inches before fertilizer application. Irrigation (0.15 inch) was applied following application. Plots were rated for turfgrass quality and color (scale of 1-10 where 10=dark green turf, 1=dead/brown turf, and 6=minimally acceptable turf) and phytotoxicity (scale of 0-5, where 5=worst, and 2=minimally objectionable) throughout the study period. Quality, color, and phytotoxicity were measured on 2 days before application (day −2) and day 2, day 5, day 15 and day 21 after application. All data was subject to statistical analysis and significant means were determined. Average turfgrass quality ratings for the treatments are presented in Table 9 and the quality results for application rates of 1.0 lb N/1000 ft^2/month are graphically presented in FIG. 4.

[5] = 1.09 Lbs. product/1000 square feet
[6] = 2.17 Lbs. product/1000 square feet
[7] = 6.51 Lbs. product/1000 square feet

## Cl.NCCCC[C@H](N)C(=O)O [Lys (HCl) 15% N, L-lysine monohydrochloride]
[1]; 3.0 lb N/1000 ft^2, Day 7
  Phytotoxicity (% Burn) - Bermuda grass: 11.7bc %
[1]; 3.0 lb N/1000 ft^2, Day 12
  Phytotoxicity (% Burn) - Bermuda grass: 6.7b %
[1]; 3.0 lb N/1000 ft^2, Day 19
  Phytotoxicity (% Burn) - Bermuda grass: 1.7bc %
[1]; 3.0 lb N/1000 ft^2, Day 26
  Phytotoxicity (% Burn) - Bermuda grass: 0.0b %
[1]; 3.0 lb N/1000 ft^2, Day 33
  Phytotoxicity (% Burn) - Bermuda grass: 0.0a %
[1]; 3.0 lb N/1000 ft^2, Day 40
  Phytotoxicity (% Burn) - Bermuda grass: 0.0c %
[1]; 3.0 lb N/1000 ft^2, Day 47
  Phytotoxicity (% Burn) - Bermuda grass: 0.0c %
[1]; 6.0 lb N/1000 ft^2, Day 7
  Phytotoxicity (% Burn) - Bermuda grass: 21.7a %
[1]; 6.0 lb N/1000 ft^2, Day 12
  Phytotoxicity (% Burn) - Bermuda grass: 11.7a %
[1]; 6.0 lb N/1000 ft^2, Day 19
  Phytotoxicity (% Burn) - Bermuda grass: 5.0b %
[1]; 6.0 lb N/1000 ft^2, Day 26
  Phytotoxicity (% Burn) - Bermuda grass: 0.0b %
[1]; 6.0 lb N/1000 ft^2, Day 33
  Phytotoxicity (% Burn) - Bermuda grass: 0.0a %
[1]; 6.0 lb N/1000 ft^2, Day 40
  Phytotoxicity (% Burn) - Bermuda grass: 0.0c %
[1]; 6.0 lb N/1000 ft^2, Day 47
  Phytotoxicity (% Burn) - Bermuda grass: 0.0c %

## NC(N)=O [Urea, urea, reference compound]
[2]; [5]
  Color 1-9 (9 = dark green): 7.0
[2]; [6]
  Color 1-9 (9 = dark green): 7.3
[2]; [7]
  Color 1-9 (9 = dark green): 7.7
[3]; [5]
  Injury 1-9 (9 = no injury): 8.3
[3]; [6]
  Injury 1-9 (9 = no injury): 8.7
[3]; [7]
  Injury 1-9 (9 = no injury): 8.7
[4]; Monthly Rate 0.5 lbs N/1000 ft^2, Day 2
  Phytotoxicity - Bermuda Grass: 0.0b
[4]; Monthly Rate 0.5 lbs N/1000 ft^2, Day 5
  Phytotoxicity - Bermuda Grass: 0
[4]; Monthly Rate 0.5 lbs N/1000 ft^2, Day 15
  Phytotoxicity - Bermuda Grass: 0
[4]; Monthly Rate 0.5 lbs N/1000 ft^2, Day 21
  Phytotoxicity - Bermuda Grass: 0
[4]; Monthly Rate 0.5 lbs N/1000 ft^2, Day −2 (before application)
  Phytotoxicity - Bermuda Grass: 0
[4]; Monthly Rate 1.0 lbs N/1000 ft^2, Day 2
  Phytotoxicity - Bermuda Grass: 0.0b
[4]; Monthly Rate 1.0 lbs N/1000 ft^2, Day 5
  Phytotoxicity - Bermuda Grass: 0
[4]; Monthly Rate 1.0 lbs N/1000 ft^2, Day 15
  Phytotoxicity - Bermuda Grass: 0
[4]; Monthly Rate 1.0 lbs N/1000 ft^2, Day 21
  Phytotoxicity - Bermuda Grass: 0
[4]; Monthly Rate 1.0 lbs N/1000 ft^2, Day −2 (before application)
  Phytotoxicity - Bermuda Grass: 0
[4]; Monthly Rate 3.0 lbs N/1000 ft^2, Day 2
  Phytotoxicity - Bermuda Grass: 0.0b
[4]; Monthly Rate 3.0 lbs N/1000 ft^2, Day 5
  Phytotoxicity - Bermuda Grass: 0
[4]; Monthly Rate 3.0 lbs N/1000 ft^2, Day 15
  Phytotoxicity - Bermuda Grass: 0
[4]; Monthly Rate 3.0 lbs N/1000 ft^2, Day 21
  Phytotoxicity - Bermuda Grass: 0
[4]; Monthly Rate 3.0 lbs N/1000 ft^2, Day −2 (before application)
  Phytotoxicity - Bermuda Grass: 0
